Test results taken from patent US9493446B2, “Orexin receptor antagonists which are [ortho bi-(hetero-)aryl]-[2-(meta bi-(hetero-)aryl)-pyrrolidin-1-yl]-methanone derivatives” (Actelion Pharmaceuticals Ltd, priority 2012, dated 2016).
Read-outs that look alike come from different tables or passages of the source.

Experiments:
orexin-1 = orexin-1 (Homo sapiens (Human), UniProt O43613); assay: Intracellular calcium measurement (FLIPR), CHO cells expressing human orexin-1 receptor, 3 nM orexin-A; format: cell-based; details: CHO cells expressing human orexin-1 receptor, FLIPR, 3 nM orexin-A; geometric mean if determined several times; read-out: IC50 OX1
How it was run: (§1)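 CHO transfectants were dye-loaded (fluo-4 AM, probenecid) and exposed to antagonist for 120 min ahead of agonist.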

human orexin-2 receptor = human orexin-2 receptor (Homo sapiens (Human), UniProt O43614); assay: Intracellular calcium measurement (FLIPR), CHO cells expressing human orexin-2 receptor, 3 nM orexin-A; format: cell-based; details: read-out: IC50 OX2
How it was run: as §1

[1] = CHO cells expressing human orexin-2 receptor, FLIPR, 3 nM orexin-A, geometric mean if determined several times

orexin-1, sequence (O43613 whole entry): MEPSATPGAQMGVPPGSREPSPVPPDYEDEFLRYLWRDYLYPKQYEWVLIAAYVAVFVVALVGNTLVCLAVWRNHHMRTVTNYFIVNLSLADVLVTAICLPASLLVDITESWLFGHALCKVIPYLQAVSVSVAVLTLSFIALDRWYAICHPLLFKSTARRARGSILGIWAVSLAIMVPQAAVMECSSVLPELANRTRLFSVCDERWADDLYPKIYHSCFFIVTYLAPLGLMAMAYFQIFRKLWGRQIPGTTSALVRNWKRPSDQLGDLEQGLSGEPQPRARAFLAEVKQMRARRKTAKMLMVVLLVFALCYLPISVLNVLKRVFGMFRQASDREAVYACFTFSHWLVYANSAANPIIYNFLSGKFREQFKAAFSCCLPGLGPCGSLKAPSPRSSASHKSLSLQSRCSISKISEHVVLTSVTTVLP
human orexin-2 receptor, sequence (O43614 whole entry): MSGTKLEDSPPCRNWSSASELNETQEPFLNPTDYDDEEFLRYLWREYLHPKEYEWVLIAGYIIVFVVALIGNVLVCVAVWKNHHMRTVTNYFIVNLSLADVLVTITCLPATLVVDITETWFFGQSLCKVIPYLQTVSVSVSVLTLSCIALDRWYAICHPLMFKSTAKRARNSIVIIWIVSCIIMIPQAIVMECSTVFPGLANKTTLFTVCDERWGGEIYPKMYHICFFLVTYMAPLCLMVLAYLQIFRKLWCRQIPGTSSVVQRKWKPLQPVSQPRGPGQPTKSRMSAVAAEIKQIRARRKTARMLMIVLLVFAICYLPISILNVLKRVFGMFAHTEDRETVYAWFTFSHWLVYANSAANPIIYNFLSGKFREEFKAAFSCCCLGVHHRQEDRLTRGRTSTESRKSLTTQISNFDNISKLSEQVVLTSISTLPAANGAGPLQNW

IC50 (orexin-1) [µM]	IC50 (human orexin-2 receptor; [1]) [µM]	SMILES	IC50 (human orexin-2 receptor) [µM]
0.1	0.045	Cc1cccc(-c2ocnc2C(=O)N2CCC[C@H]2c2nc(-c3ccccc3OC(F)(F)F)no2)c1 [compound 140, (5-m-Tolyl-oxazol-4-yl)-{(S)-2-[3-(2-trifluoromethoxy-phenyl)-[1,2,4]oxadiazol-5-yl]-pyrrolidin-1-yl}-methanone]	–
0.059	0.029	O=C(c1ccccc1-n1nccn1)N1CCC[C@H]1c1nc(-c2ccccc2OC(F)(F)F)no1 [compound 141, (2-[1,2,3]Triazol-2-yl-phenyl)-{(S)-2-[3-(2-trifluoromethoxy-phenyl)-[1,2,4]oxadiazol-5-yl]-pyrrolidin-1-yl}-methanone]	–
0.026	0.083	COc1ccc(-n2nccn2)c(C(=O)N2CCC[C@H]2c2nc(-c3ccccc3OC(F)(F)F)no2)c1F [compound 144, (2-Fluoro-3-methoxy-6-[1,2,3]triazol-2-yl-phenyl)-{(S)-2-[3-(2-trifluoromethoxy-phenyl)-[1,2,4]oxadiazol-5-yl]-pyrrolidin-1-yl}-methanone]	–
0.019	0.015	Cc1ccc(-n2nccn2)c(C(=O)N2CCC[C@H]2c2nc(-c3ccccc3OC(F)(F)F)no2)c1F [compound 145, (2-Fluoro-3-methyl-6-[1,2,3]triazol-2-yl-phenyl)-{(S)-2-[3-(2-trifluoromethoxy-phenyl)-[1,2,4]oxadiazol-5-yl]-pyrrolidin-1-yl}-methanone]	–
0.031	0.015	Cc1ccc(C(=O)N2CCC[C@H]2c2nc(-c3ccccc3OC(F)(F)F)no2)c(-n2nccn2)c1 [compound 147, (4-Methyl-2-[1,2,3]triazol-2-yl-phenyl)-{(S)-2-[3-(2-trifluoromethoxy-phenyl)-[1,2,4]oxadiazol-5-yl]-pyrrolidin-1-yl}-methanone]	–
0.241	0.285	O=C(c1cc(C(F)(F)F)ccc1-n1nccn1)N1CCC[C@H]1c1nc(-c2ccccc2OC(F)(F)F)no1 [compound 148, (2-[1,2,3]Triazol-2-yl-5-trifluoromethyl-phenyl)-{(S)-2-[3-(2-trifluoromethoxy-phenyl)-[1,2,4]oxadiazol-5-yl]-pyrrolidin-1-yl}-methanone]	–
0.184	0.085	Cc1cccc(-n2nccn2)c1C(=O)N1CCC[C@H]1c1nc(-c2ccccc2OC(F)(F)F)no1 [compound 149, (2-Methyl-6-[1,2,3]triazol-2-yl-phenyl)-{(S)-2-[3-(2-trifluoromethoxy-phenyl)-[1,2,4]oxadiazol-5-yl]-pyrrolidin-1-yl}-methanone]	–
0.457	0.341	O=C(c1cc(OC(F)(F)F)ccc1-n1nccn1)N1CCC[C@H]1c1nc(-c2ccccc2OC(F)(F)F)no1 [compound 150, (2-[1,2,3]Triazol-2-yl-5-trifluoromethoxy-phenyl)-{(S)-2-[3-(2-trifluoromethoxy-phenyl)-[1,2,4]oxadiazol-5-yl]-pyrrolidin-1-yl}-methanone]	–
0.027	0.027	COc1ccc(-n2nccn2)c(C(=O)N2CCC[C@H]2c2nc(-c3ccccc3OC(F)(F)F)no2)c1 [compound 151, (5-Methoxy-2-[1,2,3]triazol-2-yl-phenyl)-{(S)-2-[3-(2-trifluoromethoxy-phenyl)-[1,2,4]oxadiazol-5-yl]-pyrrolidin-1-yl}-methanone]	–
0.009	0.035	COc1ccc(-c2ccccc2)c(C(=O)N2CCC[C@H]2c2nc(-c3ccccc3OC(F)(F)F)no2)c1 [compound 152, (4-Methoxy-biphenyl-2-yl)-{(S)-2-[3-(2-trifluoromethoxy-phenyl)-[1,2,4]oxadiazol-5-yl]-pyrrolidin-1-yl}-methanone]	–
0.781	0.46	O=C(c1[nH]cnc1-c1ccccc1)N1CCC[C@H]1c1nc(-c2ccccc2OC(F)(F)F)no1 [compound 153, (5-Phenyl-3H-imidazol-4-yl)-{(S)-2-[3-(2-trifluoromethoxy-phenyl)-[1,2,4]oxadiazol-5-yl]-pyrrolidin-1-yl}-methanone]	–
0.174	0.043	O=C(c1cc(F)ccc1-n1nccn1)N1CCC[C@H]1c1nc(-c2ccccc2OC(F)(F)F)no1 [compound 155, (5-Fluoro-2-[1,2,3]triazol-2-yl-phenyl)-{(S)-2-[3-(2-trifluoromethoxy-phenyl)-[1,2,4]oxadiazol-5-yl]-pyrrolidin-1-yl}-methanone]	–
0.099	0.073	COc1ccc(-n2cccn2)c(C(=O)N2CCC[C@H]2c2nc(-c3ccccc3OC(F)(F)F)no2)c1 [compound 157, (5-Methoxy-2-pyrazol-1-yl-phenyl)-{(S)-2-[3-(2-trifluoromethoxy-phenyl)-[1,2,4]oxadiazol-5-yl]-pyrrolidin-1-yl}-methanone]	–
0.088	0.071	Cc1ccc(-n2nccn2)c(C(=O)N2CCC[C@H]2c2nc(-c3ccccc3OC(F)(F)F)no2)n1 [compound 159, (6-Methyl-3-[1,2,3]triazol-2-yl-pyridin-2-yl)-{(S)-2-[3-(2-trifluoromethoxy-phenyl)-[1,2,4]oxadiazol-5-yl]-pyrrolidin-1-yl}-methanone]	–
0.238	0.212	Cc1ccc(-n2cccn2)c(C(=O)N2CCC[C@H]2c2nc(-c3ccccc3OC(F)(F)F)no2)n1 [compound 160, (6-Methyl-3-pyrazol-1-yl-pyridin-2-yl)-{(S)-2-[3-(2-trifluoromethoxy-phenyl)-[1,2,4]oxadiazol-5-yl]-pyrrolidin-1-yl}-methanone]	–
0.751	0.204	O=C(c1cc(F)c(F)cc1-n1nccn1)N1CCC[C@H]1c1nc(-c2ccccc2OC(F)(F)F)no1 [compound 161, (4,5-Difluoro-2-[1,2,3]triazol-2-yl-phenyl)-{(S)-2-[3-(2-trifluoromethoxy-phenyl)-[1,2,4]oxadiazol-5-yl]-pyrrolidin-1-yl}-methanone]	–
0.818	0.347	O=C(c1ccc(F)cc1-n1cccn1)N1CCC[C@H]1c1nc(-c2ccccc2OC(F)(F)F)no1 [compound 162, (4-Fluoro-2-pyrazol-1-yl-phenyl)-{(S)-2-[3-(2-trifluoromethoxy-phenyl)-[1,2,4]oxadiazol-5-yl]-pyrrolidin-1-yl}-methanone]	–
0.495	0.087	O=C(c1ccc(F)cc1-n1nccn1)N1CCC[C@H]1c1nc(-c2ccccc2OC(F)(F)F)no1 [compound 163, (4-Fluoro-2-[1,2,3]triazol-2-yl-phenyl)-{(S)-2-[3-(2-trifluoromethoxy-phenyl)-[1,2,4]oxadiazol-5-yl]-pyrrolidin-1-yl}-methanone]	–
0.333	0.171	O=C(c1cccc(F)c1-n1cccn1)N1CCC[C@H]1c1nc(-c2ccccc2OC(F)(F)F)no1 [compound 164, (3-Fluoro-2-pyrazol-1-yl-phenyl)-{(S)-2-[3-(2-trifluoromethoxy-phenyl)-[1,2,4]oxadiazol-5-yl]-pyrrolidin-1-yl}-methanone]	–
0.286	0.079	O=C(c1cccc(F)c1-n1nccn1)N1CCC[C@H]1c1nc(-c2ccccc2OC(F)(F)F)no1 [compound 165, (3-Fluoro-2-[1,2,3]triazol-2-yl-phenyl)-{(S)-2-[3-(2-trifluoromethoxy-phenyl)-[1,2,4]oxadiazol-5-yl]-pyrrolidin-1-yl}-methanone]	–
0.114	0.043	O=C(c1cc(F)ccc1-c1ccn[nH]1)N1CCC[C@H]1c1nc(-c2ccccc2OC(F)(F)F)no1 [compound 167, [5-Fluoro-2-(2H-pyrazol-3-yl)-phenyl]-{(S)-2-[3-(2-trifluoromethoxy-phenyl)-[1,2,4]oxadiazol-5-yl]-pyrrolidin-1-yl}-methanone]	–
0.027	0.01	O=C(c1cccc(F)c1-c1ccn[nH]1)N1CCC[C@H]1c1nc(-c2ccccc2OC(F)(F)F)no1 [compound 168, [3-Fluoro-2-(2H-pyrazol-3-yl)-phenyl]-{(S)-2-[3-(2-trifluoromethoxy-phenyl)-[1,2,4]oxadiazol-5-yl]-pyrrolidin-1-yl}-methanone]	–
0.137	0.09	COc1ccc(C(=O)N2CCC[C@H]2c2nc(-c3ccccc3OC(F)(F)F)no2)c(-n2nccn2)c1 [compound 169, (4-Methoxy-2-[1,2,3]triazol-2-yl-phenyl)-{(S)-2-[3-(2-trifluoromethoxy-phenyl)-[1,2,4]oxadiazol-5-yl]-pyrrolidin-1-yl}-methanone]	–
0.055	0.035	Cc1cc(C)c(-n2nccn2)c(C(=O)N2CCC[C@H]2c2nc(-c3ccccc3OC(F)(F)F)no2)c1 [compound 170, (3,5-Dimethyl-2-[1,2,3]triazol-2-yl-phenyl)-{(S)-2-[3-(2-trifluoromethoxy-phenyl)-[1,2,4]oxadiazol-5-yl]-pyrrolidin-1-yl}-methanone]	–
0.104	0.03	O=C(c1ccccc1-c1ncco1)N1CCC[C@H]1c1nc(-c2ccccc2OC(F)(F)F)no1 [compound 171, (2-Oxazol-2-yl-phenyl)-{(S)-2-[3-(2-trifluoromethoxy-phenyl)-[1,2,4]oxadiazol-5-yl]-pyrrolidin-1-yl}-methanone]	–
0.132	0.116	O=C(c1ccc(C(F)(F)F)cc1-n1nccn1)N1CCC[C@H]1c1nc(-c2ccccc2OC(F)(F)F)no1 [compound 173, (2-[1,2,3]Triazol-2-yl-4-trifluoromethyl-phenyl)-{(S)-2-[3-(2-trifluoromethoxy-phenyl)-[1,2,4]oxadiazol-5-yl]-pyrrolidin-1-yl}-methanone]	–

SMILES	IC50 (orexin-1) [µM]	IC50 (human orexin-2 receptor; [1]) [µM]	IC50 (human orexin-2 receptor) [µM]
O=C(c1ncsc1-c1cccc(Cl)c1)N1CCC[C@H]1c1nc(-c2ccccc2OC(F)(F)F)no1 [compound 142]	0.123	0.08	–
O=C(c1cc(Cl)ccc1-n1nccn1)N1CCC[C@H]1c1nc(-c2ccccc2OC(F)(F)F)no1 [compound 143]	0.047	–	0.034
O=C(c1ccc(Cl)cc1-n1nccn1)N1CCC[C@H]1c1nc(-c2ccccc2OC(F)(F)F)no1 [compound 172]	0.056	–	0.018
